Data on one compound can be found in US10143686B2, “Oxidosqualene cyclase as a protein target for anticancer therapeutics” (The Curators of the University of Missouri, priority 2010, dated 2018).

The test system of this test is BT-474, MCF-7, BT-20 and MDA-231 human breast cancer cells. As to the kind of experiment: Annexin V / PI apoptosis assay, breast cancer cells. The test is classed as cell-based. Particulars: 24 hours. From the text: Apoptosis is a normal physiologic process which occurs during embryonic development as well as in maintenance of tissue homeostasis. The apoptotic program is characterized by certain morphologic features, including loss of plasma membrane asymmetry and attachment, condensation of the cytoplasm and nucleus, and internucleosomal cleavage of DNA. […]. In apoptotic cells, the membrane phospholipid phosphatidylserine (PS) is translocated from the inner to the outer leaflet of the plasma membrane, thereby exposing PS to the external cellular environment. Annexin V is a 35-36 kDa Ca2+ dependent phospholipid-binding protein that has a high affinity for PS, and binds to cells with exposed PS. Annexin V may be conjugated to fluorochromes including FITC. […]
FITC Annexin V staining precedes the loss of membrane integrity which accompanies the latest stages of cell death resulting from either apoptotic or necrotic processes. […] However, when apoptosis is measured over time, cells can be often tracked from FITC Annexin V and PI negative (viable, or no measurable apoptosis), to FITC Annexin V positive and PI negative (early apoptosis, membrane integrity is present) and finally to FITC Annexin V and PI positive (end stage apoptosis and death). […]

Where a name gives a salt, the structure may show the parent alone.

Turning to `C=CCN(C)CCCCCCOc1ccc(C(=O)c2ccc(Br)cc2)c(F)c1` [Ro 48-8071, 4′-[6-(Allylmethylamino)hexyloxy]-4-bromo-2′-fluorobenzophenone fumarate], the “apoptosis and cell death (annexin V / PI positive cells)” value is “Induces Apoptosis and Cell Death”.
